For test [1], the target named is Carbonic anhydrase 3 (Homo sapiens, UniProt P07451).
Description: Inhibition of human CA3 preincubated for 15 mins by phenol red staining based stopped flow CO2 hydrase assay
Test [2] concerns the target Carbonic anhydrase 5B, mitochondrial (Homo sapiens, UniProt Q9Y2D0). Put plainly: Inhibition of human CA VB preincubated for 15 mins by phenol red staining based stopped flow CO2 hydrase assay.
Test [3] addresses Carbonic anhydrase 2 (Homo sapiens, UniProt P00918). The test is described as follows: Inhibition of human CA2 preincubated for 15 mins by phenol red staining based stopped flow CO2 hydrase assay.
Test [4] concerns the target Carbonic anhydrase 5A, mitochondrial (Homo sapiens, UniProt P35218). The test is described as follows: Inhibition of human CA VA preincubated for 15 mins by phenol red staining based stopped flow CO2 hydrase assay.
Test [5] concerns the target Carbonic anhydrase 6 (Homo sapiens, UniProt P23280). The test is described as follows: Inhibition of human CA6 preincubated for 15 mins by phenol red staining based stopped flow CO2 hydrase assay.
In test [6] the target is Carbonic anhydrase 14 (Homo sapiens, UniProt Q9ULX7). Put plainly: Inhibition of human CA14 preincubated for 15 mins by phenol red staining based stopped flow CO2 hydrase assay.
Chain of Carbonic anhydrase 14 (Q9ULX7 whole entry): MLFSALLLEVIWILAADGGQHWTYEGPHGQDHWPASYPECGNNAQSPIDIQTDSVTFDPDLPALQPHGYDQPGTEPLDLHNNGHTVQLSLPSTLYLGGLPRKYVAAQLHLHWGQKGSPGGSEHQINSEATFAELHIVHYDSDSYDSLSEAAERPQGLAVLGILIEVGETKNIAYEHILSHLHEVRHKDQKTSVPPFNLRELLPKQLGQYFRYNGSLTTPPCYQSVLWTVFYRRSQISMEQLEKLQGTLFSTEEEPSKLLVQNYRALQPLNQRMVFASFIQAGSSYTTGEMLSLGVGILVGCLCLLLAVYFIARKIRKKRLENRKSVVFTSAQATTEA
Test [7] concerns the target Carbonic anhydrase 7 (Homo sapiens, UniProt P43166).
Description: Inhibition of human CA7 preincubated for 15 mins by phenol red staining based stopped flow CO2 hydrase assay
In test [8] the target is Carbonic anhydrase 13 (Homo sapiens, UniProt Q8N1Q1). The test is described as follows: Inhibition of human CA13 preincubated for 15 mins by phenol red staining based stopped flow CO2 hydrase assay.
Chain of Carbonic anhydrase 13 (Q8N1Q1 whole entry): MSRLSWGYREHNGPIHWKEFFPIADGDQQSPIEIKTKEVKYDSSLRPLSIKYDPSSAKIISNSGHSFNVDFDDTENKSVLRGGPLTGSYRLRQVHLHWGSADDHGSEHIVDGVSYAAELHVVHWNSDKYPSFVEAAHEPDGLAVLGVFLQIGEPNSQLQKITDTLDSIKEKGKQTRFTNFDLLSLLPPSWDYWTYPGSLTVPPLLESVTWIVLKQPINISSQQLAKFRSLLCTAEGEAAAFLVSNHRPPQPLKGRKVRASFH
The target of test [9] is Carbonic anhydrase 1 (Homo sapiens, UniProt P00915). The test is described as follows: Inhibition of human CA1 preincubated for 15 mins by phenol red staining based stopped flow CO2 hydrase assay.
Chain of Carbonic anhydrase 1 (P00915 whole entry): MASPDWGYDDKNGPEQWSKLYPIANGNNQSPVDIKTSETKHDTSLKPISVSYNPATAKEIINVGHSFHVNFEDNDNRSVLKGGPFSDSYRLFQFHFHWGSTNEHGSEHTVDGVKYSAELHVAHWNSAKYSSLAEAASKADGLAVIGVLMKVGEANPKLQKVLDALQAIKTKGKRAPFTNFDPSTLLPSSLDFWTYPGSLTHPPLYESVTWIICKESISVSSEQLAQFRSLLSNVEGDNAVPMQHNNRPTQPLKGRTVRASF
Test [10] has as its target Carbonic anhydrase 12 (Homo sapiens, UniProt O43570).
Description: Inhibition of human CA12 preincubated for 15 mins by phenol red staining based stopped flow CO2 hydrase assay
For test [11], the target named is Carbonic anhydrase 4 (Homo sapiens, UniProt P22748). Put plainly: Inhibition of human CA4 preincubated for 15 mins by phenol red staining based stopped flow CO2 hydrase assay.
Chain of Carbonic anhydrase 4 (P22748 whole entry): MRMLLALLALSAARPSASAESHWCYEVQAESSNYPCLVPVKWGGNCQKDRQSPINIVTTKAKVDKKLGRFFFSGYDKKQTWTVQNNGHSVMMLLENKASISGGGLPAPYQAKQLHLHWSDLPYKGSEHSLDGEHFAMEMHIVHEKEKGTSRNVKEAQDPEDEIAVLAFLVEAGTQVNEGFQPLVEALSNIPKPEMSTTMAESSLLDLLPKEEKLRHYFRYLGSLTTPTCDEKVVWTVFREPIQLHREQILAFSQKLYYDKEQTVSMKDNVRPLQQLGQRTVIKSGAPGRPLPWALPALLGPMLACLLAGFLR
For test [12], the target named is Carbonic anhydrase 9 (Homo sapiens, UniProt Q16790).

pKi: −log10 of the molar value.

Chain of Carbonic anhydrase 12 (O43570 whole entry): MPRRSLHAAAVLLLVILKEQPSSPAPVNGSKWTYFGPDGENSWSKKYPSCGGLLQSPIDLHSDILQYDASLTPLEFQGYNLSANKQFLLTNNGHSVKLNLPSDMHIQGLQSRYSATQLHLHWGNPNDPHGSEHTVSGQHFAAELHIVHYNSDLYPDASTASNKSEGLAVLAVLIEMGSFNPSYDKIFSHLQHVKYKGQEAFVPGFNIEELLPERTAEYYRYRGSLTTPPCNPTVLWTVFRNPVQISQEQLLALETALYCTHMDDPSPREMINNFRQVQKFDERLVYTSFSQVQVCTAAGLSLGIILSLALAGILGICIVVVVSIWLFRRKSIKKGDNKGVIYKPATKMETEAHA
Chain of Carbonic anhydrase 5A, mitochondrial (P35218 whole entry): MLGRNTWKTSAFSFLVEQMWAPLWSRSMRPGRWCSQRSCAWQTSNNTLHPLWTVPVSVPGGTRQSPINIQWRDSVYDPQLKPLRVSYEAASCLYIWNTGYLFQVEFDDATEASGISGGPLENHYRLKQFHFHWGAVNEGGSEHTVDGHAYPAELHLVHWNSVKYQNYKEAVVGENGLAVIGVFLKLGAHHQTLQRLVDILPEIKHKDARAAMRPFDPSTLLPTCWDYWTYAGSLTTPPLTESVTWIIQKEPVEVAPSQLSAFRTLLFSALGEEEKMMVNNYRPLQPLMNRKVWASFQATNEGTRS
Chain of Carbonic anhydrase 5B, mitochondrial (Q9Y2D0 whole entry): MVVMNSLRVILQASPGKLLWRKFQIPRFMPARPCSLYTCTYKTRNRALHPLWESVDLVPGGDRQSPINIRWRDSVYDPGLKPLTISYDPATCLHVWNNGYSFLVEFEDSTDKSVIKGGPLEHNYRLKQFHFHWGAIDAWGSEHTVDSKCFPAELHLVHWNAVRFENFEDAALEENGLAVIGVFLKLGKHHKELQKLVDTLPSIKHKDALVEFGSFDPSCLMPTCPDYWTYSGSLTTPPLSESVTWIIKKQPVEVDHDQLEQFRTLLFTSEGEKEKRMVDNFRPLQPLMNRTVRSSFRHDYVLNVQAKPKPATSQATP
Chain of Carbonic anhydrase 7 (P43166 whole entry): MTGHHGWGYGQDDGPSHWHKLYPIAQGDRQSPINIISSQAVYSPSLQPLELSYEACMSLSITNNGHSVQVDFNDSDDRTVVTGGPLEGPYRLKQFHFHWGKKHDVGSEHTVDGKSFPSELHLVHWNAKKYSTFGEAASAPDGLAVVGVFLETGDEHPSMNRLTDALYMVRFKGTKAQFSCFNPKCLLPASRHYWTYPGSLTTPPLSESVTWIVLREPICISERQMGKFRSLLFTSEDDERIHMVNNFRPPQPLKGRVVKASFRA
Chain of Carbonic anhydrase 3 (P07451 whole entry): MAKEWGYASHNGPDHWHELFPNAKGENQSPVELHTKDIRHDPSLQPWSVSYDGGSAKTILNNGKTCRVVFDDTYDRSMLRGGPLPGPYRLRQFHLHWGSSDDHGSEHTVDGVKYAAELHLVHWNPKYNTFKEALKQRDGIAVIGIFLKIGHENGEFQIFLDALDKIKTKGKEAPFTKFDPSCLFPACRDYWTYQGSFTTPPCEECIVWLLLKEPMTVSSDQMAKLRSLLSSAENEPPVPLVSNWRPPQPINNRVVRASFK
Chain of Carbonic anhydrase 6 (P23280 whole entry): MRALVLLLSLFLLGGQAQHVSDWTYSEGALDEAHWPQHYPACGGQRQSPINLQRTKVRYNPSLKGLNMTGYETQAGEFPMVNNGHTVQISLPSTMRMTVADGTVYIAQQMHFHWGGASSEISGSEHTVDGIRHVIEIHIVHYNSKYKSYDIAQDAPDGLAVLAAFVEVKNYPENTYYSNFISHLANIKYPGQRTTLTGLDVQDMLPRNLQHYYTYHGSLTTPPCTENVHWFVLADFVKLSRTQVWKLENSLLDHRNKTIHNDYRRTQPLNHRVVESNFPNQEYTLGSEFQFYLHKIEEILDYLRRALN

Turning to `CC[C@@H](C(N)=O)N1CCCC1=O`, the negative-log Ki (pKi) (as a rule, the Ki on a negative log10 scale, so that one unit is a factor of ten) was 5.61 in test [1]; 5.41 in test [2]; 5.41 in test [3]; 5.04 in test [4]; 5.08 in test [5]; 5.64 in test [6]. In addition, the pKi in test [7] is 5.12; in test [8], 5.38; in [9], 5.10; in test [10], 7.27; in test [11] it was 5.28; in test [12], 7.05.
